Assay results published in patent publication US11655239B2 (SHANGHAI INSTITUTE OF MATERIAL MEDICA, CHINESE ACADEMY OF …, priority 2019, dated 2023).

Key:
ErbB2 = ErbB2 (Homo sapiens (Human), UniProt P04626); assay: Enzyme selectivity test (ELISA), ErbB2; format: biochemical
Protocol: 1) Enzyme reaction substrate Poly(Glu, Tyr) 4:1 was diluted to 20 μg/mL with potassium-free PBS (10 mM sodium phosphate buffer, 150 mM NaCl, pH 7.2-7.4), and the microtiter plate was coated with 125 μL/well and placed at 37° C. for 12-16 hours of reaction. The liquid in the well was discard. The plate was washed three times with T-PBS (potassium-free PBS containing 0.1% Tween-20, 200 μL/well), 5 minutes each time. The ELISA plate was dried in an oven at 37° C. for 1 to 2 hours.
2) Reaction buffer (50 mM HEPES pH 7.4, 50 mM MgCl2, 0.5 mM MnCl2, 0.2 mM Na3VO4, 1 mM DTT) diluted ATP solution (49 μL) was added to each well, 1 μL of the compound to be tested was added to each well, and then 50 μL of DDR2 kinase domain recombinant protein diluted in the reaction buffer was added to start the reaction. Two control wells without ATP were set in each experiment. The plate placed on a shaker (100 rpm) at 37° C. for 1 hour of reaction. The liquid in the well was discarded and the plate was washed three times with T-PBS.
3) Antibody PY99 dilution solution (the antibody was diluted 1:500 with T-PBS containing BSA 5 mg/mL) was added at 100 μL/well, and shaken on a shaker at 37° C. for 0.5 hour of reaction. The liquid in the well was discarded and the plate was washed three times with T-PBS.
4) Horseradish peroxidase labeled goat anti-murine secondary antibody dilution solution (the antibody is diluted 1:2000 with T-PBS containing BSA 5 mg/ml) was added at 100 μL/well, and shaken on a shaker at 37° C. for 0.5 hour of reaction. The liquid in the well was discarded and the plate was washed three times with T-PBS.
5) 2 mg/ml of OPD color developing solution [diluted with 0.1 M citric acid-sodium citrate buffer (pH=5.4) containing 0.03% H2O2] was added at 100 μL/well and reacted for 1 to 10 minutes at 25° C. in the dark.
6) 2M H2SO4 was added at 50 μL/well to stop the reaction, and a tunable wavelength microplate reader VERSAmax was used for reading at a wavelength of 490 nm.
The IC50 value was obtained by four-parameter regression using the software that came with the microplate reader. […]

[1] = test system: bronchial epithelial cell line Beas-2B; assay: Cytotoxic activity test (MTS), Beas-2B; format: cell-based, human; details: 10 μM
Protocol: Experimental objective: The cytotoxic activity of compound S15 on bronchial epithelial cell line Beas-2B and lung fibroblast cell line MRC-5 was tested.
1) The human bronchial epithelial cell line Beas-2B and the human embryonic lung fibroblast cell line MRC-5 were collected, and inoculated at a certain density (about 5000-10000 cells) on a 96-well plate (the edge wells were filled with sterile water or PBS). A control was set on each plate (100 μL of culture medium was added);
2) The plate was incubated overnight at 37° C., 5% CO2. The plate was turned upside down and observed under the microscope.
3) The solutions of different concentrations of the compounds to be tested were added to each well, and a control well (culture medium and MTS solution with cells but no drug) and a blank well (without cells, medium and MTS solution) were set, 3 to 5 repetition wells were set for each group. Incubation was performed at 37° C. for 48-72 hours.
4) 10 μL/well of MTS/PMS (20:1, Promega Corp) solution was added to each well containing 100 μL of culture medium, and then the plate was gently shaken. The plate was incubated at 37° C. for 2 to 4 hours.
5) M5 microplate reader (Molecular Device, USA) was used to measure the absorbance of the solution at 490 nm. […]

MRC-5 induced by TGF-β1 = assay: Activation of MRC-5 induced by TGF-β1; format: cell-based, human; details: levels of Fibronectin, α-SMA, Collagen1-α1
Protocol: 1) Preparation of cell protein samples: the cell culture liquid was discarded, wash was performed once with PBS, and samples were collected by adding 1×SDS-Loading. after the samples were collected, they were placed in a metal bath at 100° C., and the samples were boiled for 10 minutes, and then the samples were stored at 4° C. for waiting for subsequent test.
2) Gel preparation and sample loading: according to the molecular weight of the detected protein, different concentrations of separation gel were selected. after filling the 1× electrophoresis buffer, an equal volume of protein sample 4 μl and protein marker were added on the far left to right in sequence.
When the sample was in the concentrated gel, the voltage was set to 80 V; when the sample was electrophoresed to the separation gel, the voltage was increased to 120 V until the bromophenol blue was electrophoresed to reach the bottom of the gel, and the electrophoresis ended. […]
8) Secondary antibodies: the film with the primary antibodies was rewarmed and incubated for about half an hour, and then the primary antibodies were recovered and the film was washed quickly with TBST solution 3 times, 10 minutes each time. […] The dilution ratio of the secondary antibody dedicated for DDR2 was 1:5000; The dilution ratio for the rest of the secondary antibodies were 1:8000, ready for use. […]

ErbB2, sequence (P04626 23-1255, species assumed): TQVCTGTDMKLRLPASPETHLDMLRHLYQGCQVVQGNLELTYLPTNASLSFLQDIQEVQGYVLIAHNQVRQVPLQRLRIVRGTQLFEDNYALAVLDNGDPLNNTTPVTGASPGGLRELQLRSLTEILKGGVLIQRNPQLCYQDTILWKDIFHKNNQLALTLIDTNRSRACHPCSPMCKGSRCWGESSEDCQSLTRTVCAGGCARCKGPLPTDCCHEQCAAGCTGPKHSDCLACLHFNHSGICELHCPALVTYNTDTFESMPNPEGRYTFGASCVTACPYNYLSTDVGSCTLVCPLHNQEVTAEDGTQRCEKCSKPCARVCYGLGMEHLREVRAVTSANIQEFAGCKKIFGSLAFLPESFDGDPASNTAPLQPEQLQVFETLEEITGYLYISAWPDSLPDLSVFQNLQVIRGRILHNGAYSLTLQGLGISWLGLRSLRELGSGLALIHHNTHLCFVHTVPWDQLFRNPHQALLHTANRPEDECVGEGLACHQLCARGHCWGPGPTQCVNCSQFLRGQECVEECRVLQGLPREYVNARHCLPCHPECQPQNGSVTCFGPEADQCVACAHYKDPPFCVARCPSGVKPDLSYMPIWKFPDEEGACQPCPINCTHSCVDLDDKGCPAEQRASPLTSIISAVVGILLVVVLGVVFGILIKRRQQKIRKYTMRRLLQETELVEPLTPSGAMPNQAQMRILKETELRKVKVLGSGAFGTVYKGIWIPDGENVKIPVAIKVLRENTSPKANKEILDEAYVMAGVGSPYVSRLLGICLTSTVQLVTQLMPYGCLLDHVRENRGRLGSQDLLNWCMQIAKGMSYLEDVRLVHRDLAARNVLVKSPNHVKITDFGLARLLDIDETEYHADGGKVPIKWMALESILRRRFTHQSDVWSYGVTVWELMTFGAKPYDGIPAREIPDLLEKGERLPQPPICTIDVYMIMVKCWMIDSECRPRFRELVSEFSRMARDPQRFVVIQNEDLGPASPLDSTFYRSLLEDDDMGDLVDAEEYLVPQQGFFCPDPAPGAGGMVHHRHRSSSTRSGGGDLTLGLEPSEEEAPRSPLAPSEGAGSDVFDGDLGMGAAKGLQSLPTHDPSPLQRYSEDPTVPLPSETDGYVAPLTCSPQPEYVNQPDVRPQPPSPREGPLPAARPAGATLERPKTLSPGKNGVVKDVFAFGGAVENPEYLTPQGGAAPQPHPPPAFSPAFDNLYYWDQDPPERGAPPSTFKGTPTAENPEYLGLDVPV

O=C(Nc1cccc(C(F)(F)F)c1)c1ccc(C2CC2)c(-c2ccc3nc(Nc4cnn(C5CC5)c4)ncc3c2)c1 [Compound S15, 4-cyclopropyl-3-(2-((1-cyclopropyl-1H-pyrazol-4-yl)amino)quinazolin-6-yl)-N-(3-(trifluoromethyl)phenyl)benzamide]
IC50 (ErbB2): > 1000 nM
cytotoxic activity on Beas-2B [1]: almost no toxicity
activation of MRC-5 induced by TGF-β1 (MRC-5 induced by TGF-β1): inhibit the activation of MRC-5 induced by TGF-β1 in a dose-dependent manner
